Measurements from ChEMBL document CHEMBL1151454, “Failures in clinical treatment of Staphylococcus aureus Infection with daptomycin are associated with alterations in surface charge, membrane phospholipid asymmetry, and drug binding” (Antimicrob Agents Chemother, 2008).
The source made the active and inactive calls. No cut-off for these calls is given here.

What was measured:
Staphylococcus aureus [1] = assay: Drug binding to daptomycin-transitional Staphylococcus aureus isolate 629 bloodstream form isolated from patient with endocarditis at 40 ug after 10 mins by radial diffusion assay; assay type: ADME, organism-based
Staphylococcus aureus [2] = assay: Drug binding to daptomycin-nonsusceptible Staphylococcus aureus isolate 703 bloodstream form isolated from patient with endocarditis at 40 ug after 10 mins by radial diffusion assay; assay type: ADME, organism-based
Staphylococcus aureus [3] = assay: Drug binding to methicillin-susceptible Staphylococcus aureus isolate 616 bloodstream form isolated from patient with endocarditis at 40 ug after 10 mins by radial diffusion assay; assay type: ADME, organism-based; conditions: in vivo
Staphylococcus aureus [4] = assay: Drug binding to daptomycin-nonsusceptible Staphylococcus aureus isolate 701 bloodstream form isolated from patient with endocarditis at 40 ug after 10 mins by radial diffusion assay; assay type: ADME, organism-based
Staphylococcus aureus [5] = assay: Induction of autolysis in daptomycin-nonsusceptible Staphylococcus aureus isolate 701 bloodstream form isolated from patient 50 ug/ml within 24 hrs; assay type: functional, organism-based
Staphylococcus aureus [6] = assay: Induction of autolysis in daptomycin-transitional Staphylococcus aureus isolate 629 bloodstream form isolated from patient 50 ug/ml within 24 hrs; assay type: functional, organism-based
Staphylococcus aureus [7] = assay: Induction of autolysis in methicillin-susceptible Staphylococcus aureus isolate 616 bloodstream form isolated from patient 50 ug/ml within 24 hrs; assay type: functional, organism-based
Staphylococcus aureus [8] = assay: Antibacterial activity against methicillin-susceptible Staphylococcus aureus isolate 616 bloodstream form isolated from patient with endocarditis assessed as inhibition on heterogeneous subpopulation survival rate at 0.25 and 1 ug/ml after 48 hrs; assay type: functional, organism-based
Staphylococcus aureus [9] = assay: Induction of autolysis in daptomycin-nonsusceptible Staphylococcus aureus isolate 703 bloodstream form isolated from patient 50 ug/ml measured at 18 hrs; assay type: functional, organism-based
Staphylococcus aureus [10] = assay: Induction of autolysis in daptomycin-nonsusceptible Staphylococcus aureus isolate 703 bloodstream form isolated from patient 50 ug/ml within 24 hrs; assay type: functional, organism-based
Staphylococcus aureus [11] = assay: Antibacterial activity against daptomycin-nonsusceptible Staphylococcus aureus isolate 701 bloodstream form isolated from patient with endocarditis assessed as inhibition on heterogeneous subpopulation survival rate at 0.25 and 1 ug/ml after 48 hrs; assay type: functional, organism-based
Staphylococcus aureus [12] = assay: Antibacterial activity against daptomycin-nonsusceptible Staphylococcus aureus isolate 703 bloodstream form isolated from patient with endocarditis assessed as inhibition on heterogeneous subpopulation survival rate at 0.25 and 1 ug/ml after 48 hrs; assay type: functional, organism-based
Staphylococcus aureus [13] = assay: Antibacterial activity against daptomycin-transitional Staphylococcus aureus isolate 629 bloodstream form isolated from patient with endocarditis assessed as inhibition on heterogeneous subpopulation survival rate at 0.25 and 1 ug/ml after 48 hrs; assay type: functional, organism-based

Compound	Drug uptake (Staphylococcus aureus [1]) [µg/mL]	Drug uptake (Staphylococcus aureus [2]) [µg/mL]	Drug uptake (Staphylococcus aureus [3]) [µg/mL]	Drug uptake (Staphylococcus aureus [4]) [µg/mL]	Activity (Staphylococcus aureus [5])	Activity (Staphylococcus aureus [6])	Activity (Staphylococcus aureus [7])	Activity (Staphylococcus aureus [8])	Activity (Staphylococcus aureus [9])	Activity (Staphylococcus aureus [10])	Activity (Staphylococcus aureus [11])	Activity (Staphylococcus aureus [12])	Activity (Staphylococcus aureus [13])
H-ALYKKFKKKLLKSLKRLG-OH	11.7	8	12.4	11.7									
CN[C@H](CC(C)C)C(=O)N[C@H]1C(=O)N[C@@H](CC(N)=O)C(=O)N[C@H]2C(=O)N[C@H]3C(=O)N[C@H](C(=O)N[C@H](C(=O)O)c4cc(O)cc(O)c4-c4cc3ccc4O)[C@H](O)c3ccc(c(Cl)c3)Oc3cc2cc(c3O[C@@H]2O[C@H](CO)[C@@H](O)[C@H](O)[C@H]2O[C@H]2C[C@](C)(N)[C@H](O)[C@H](C)O2)Oc2ccc(cc2Cl)[C@H]1O					inactive	inactive	Active	inactive	inactive	inactive	inactive	inactive	inactive
